Experimental data taken from patent US20260207560A1, “PLURALITY OF GRANULES” (priority 2022, published 2026).
“And” between values parts separate entries of the source, which are not always exact repeats. Equal entries are not always repeated.

Assay: Stability of active ingredient in volatile solvents, 20-28 hours at ambient (UPLC assay and impurities)
Conditions: for Assay (as % of nominal): vial replicates
Method: Note the incubation for the stability studies were all performed in a similar way: • All were put into 4 mL amber glass vials. • The Initial samples were not analysed as soon as sampled but instead were frozen at −20° C. until the point of analysing the incubated samples (e.g after 28 days at 25, 40 or 50° C.) to avoid degradation of the active ingredient.
Chemical stability was determined by assay (results in Table 8) and quantification of potential active ingredient related substances (shown in
Table 9). […] The objective was to establish whether any active ingredient-related substances might be increasing as a result of the ambient hold.

[1] = 5% SLS aq., Initial, listed as active ingredient
[2] = Ethanol absolute, 24 hour, listed as active ingredient
[3] = Ethanol absolute, Initial, listed as active ingredient
[4] = pH 3 citric acid buffer, 24 hour
[5] = pH 3 citric acid buffer, 24 hour, listed as active ingredient
[6] = pH 3 citric acid buffer, Initial
[7] = pH 3 citric acid buffer, Initial, listed as active ingredient

SMILES: CCS(=O)(=O)Nc1ccc2c(c1)nc(C(C)(C)C)n2CC1CCC(F)(F)CC1 [Compound I, N-(2-(tert-butyl)-1-((4,4-difluorocyclohexyl)methyl)-1H-benzimidazol-5-yl)ethanesulfonamide]
- Assay (as % of nominal), Mean (5% SLS aq., Initial): 103.3 % of nominal
- Impurity peak area, RRT 0.84* (5% SLS aq., Initial): 0.32 % of Total
- Impurity peak area, RRT 0.86^$ (PDA spectra unrelated to the active ingredient) (5% SLS aq., Initial): <0.05 % of Total
- Impurity peak area, RRT 0.98* (first row) (5% SLS aq., Initial): 0.24 % of Total
- Impurity peak area, RRT 0.98* (second row) (5% SLS aq., Initial): 0.12 % of Total
- Impurity peak area, RRT 1.24* (5% SLS aq., Initial): <0.05 % of Total
- Impurity peak area, RRT 1.36* (5% SLS aq., Initial): 0.05 % of Total
- Impurity peak area, RRT 0.92 [1]: 0.05 % of Total and <0.05 % of Total
- Impurity peak area, RRT 1.04* [1]: 0.05 % of Total and <0.05 % of Total
- Impurity peak area, RRT 1.23* [1]: 0.06 % of Total and 0.07 % of Total
- Impurity peak area, RRT 1.35* [1]: 0.07 % of Total and 0.08 % of Total
- Impurity peak area, Total [1]: 0.96 % of Total and 0.88 % of Total
- Impurity peak area, Total excluding artifact [1]: 0.96 % of Total and 0.88 % of Total
- Assay (as % of nominal) [1]: 105.0 % of nominal and 101.7 % of nominal
- Assay (as % of nominal), Mean (Ethanol Absolute, 24 hours ambient): 99.0 % of nominal
- Assay (as % of nominal) (Ethanol Absolute, 24 hours ambient, listed as active ingredient): 100.2 % of nominal and 97.7 % of nominal
- Assay (as % of nominal) (Ethanol Absolute, Initial): 107.1 % of nominal
- Assay (as % of nominal) (Ethanol Absolute, Initial, listed as active ingredient): 90.6 % of nominal
- Impurity peak area, RRT 0.86^$ (PDA spectra unrelated to the active ingredient) (Ethanol absolute, 24 hour): <0.05 % of Total
- Impurity peak area, RRT 0.92 (Ethanol absolute, 24 hour): <0.05 % of Total
- Impurity peak area, RRT 1.04* (Ethanol absolute, 24 hour): <0.05 % of Total
- Impurity peak area, RRT 1.23* (Ethanol absolute, 24 hour): 0.07 % of Total
- Impurity peak area, RRT 1.24* (Ethanol absolute, 24 hour): <0.05 % of Total
- Impurity peak area, RRT 1.35* (Ethanol absolute, 24 hour): 0.08 % of Total
- Impurity peak area, RRT 1.36* (Ethanol absolute, 24 hour): 0.06 % of Total
- Impurity peak area, RRT 0.84* [2]: 0.33 % of Total and 0.35 % of Total
- Impurity peak area, RRT 0.98* (first row) [2]: 0.22 % of Total and 0.20 % of Total
- Impurity peak area, RRT 0.98* (second row) [2]: 0.13 % of Total and 0.14 % of Total
- Impurity peak area, Total [2]: 0.89 % of Total and 0.90 % of Total
- Impurity peak area, Total excluding artifact [2]: 0.89 % of Total and 0.90 % of Total
- Assay (as % of nominal), Mean (Ethanol absolute, Initial): 98.8 % of nominal
- Impurity peak area, RRT 0.38 (Ethanol absolute, Initial): 0.07 % of Total
- Impurity peak area, RRT 0.61 (Ethanol absolute, Initial): 0.08 % of Total
- Impurity peak area, RRT 0.62 (Ethanol absolute, Initial): 0.09 % of Total
- Impurity peak area, RRT 0.83 (Ethanol absolute, Initial): 0.18 % of Total
- Impurity peak area, RRT 0.92 (Ethanol absolute, Initial): <0.05 % of Total
- Impurity peak area, RRT 0.98* (second row) (Ethanol absolute, Initial): 0.12 % of Total
- Impurity peak area, RRT 1.24* (Ethanol absolute, Initial): <0.05 % of Total
- Impurity peak area, RRT 1.36* (Ethanol absolute, Initial): 0.06 % of Total
- Impurity peak area, RRT 0.84* [3]: 0.37 % of Total and 0.33 % of Total
- Impurity peak area, RRT 0.98* (first row) [3]: 0.20 % of Total and 0.22 % of Total
- Impurity peak area, RRT 1.04* [3]: 0.05 % of Total and <0.05 % of Total
- Impurity peak area, RRT 1.23* [3]: 0.08 % of Total and 0.07 % of Total
- Impurity peak area, RRT 1.35* [3]: 0.08 % of Total and 0.09 % of Total
- Impurity peak area, Total [3]: 0.96 % of Total and 1.47 % of Total
- Impurity peak area, Total excluding artifact [3]: 0.96 % of Total and 0.89 % of Total
- Degradation of the active ingredient (four volatile solvents, 20-28 hour hold at ambient temperature): no evidence for any active ingredient degradation
- Total impurities, highest in any case (four volatile solvents, initial and 20-28 hour ambient hold): ≤ 1.17 % of the total peak area
- Impurity peak area, RRT 0.92 [4]: 0.06 % of Total
- Impurity peak area, RRT 1.04* [4]: 0.09 % of Total
- Impurity peak area, RRT 1.23* [4]: 0.10 % of Total
- Impurity peak area, RRT 0.38 [5]: 0.26 % of Total and 0.14 % of Total
- Impurity peak area, RRT 0.61 [5]: 0.07 % of Total and 0.10 % of Total
- Impurity peak area, RRT 0.62 [5]: 0.07 % of Total and 0.11 % of Total
- Impurity peak area, RRT 0.83 [5]: 0.30 % of Total and 0.16 % of Total
- Impurity peak area, RRT 0.84* [5]: 0.30 % of Total and 0.37 % of Total
- Impurity peak area, RRT 0.98* (first row) [5]: 0.22 % of Total and 0.21 % of Total
- Impurity peak area, RRT 0.98* (second row) [5]: 0.13 % of Total and 0.14 % of Total
- Impurity peak area, RRT 1.24* [5]: <0.05 % of Total and 0.06 % of Total
- Impurity peak area, Total [5]: 1.88 % of Total and 1.82 % of Total
- Impurity peak area, Total excluding artifact [5]: 0.90 % of Total and 1.03 % of Total
- Assay (as % of nominal), Mean (pH 3 citric acid buffer, 24 hours ambient): 95.8 % of nominal
- Assay (as % of nominal) (pH 3 citric acid buffer, 24 hours ambient, listed as active ingredient): 109.6 % of nominal and 82.1 % of nominal
- Assay (as % of nominal), Mean [6]: 109.6 % of nominal
- Impurity peak area, RRT 0.38 [6]: 0.27 % of Total
- Impurity peak area, RRT 0.41 [6]: 0.26 % of Total
- Impurity peak area, RRT 0.61 [6]: 0.05 % of Total
- Impurity peak area, RRT 0.62 [6]: 0.06 % of Total
- Impurity peak area, RRT 0.83 [6]: 0.21 % of Total
- Impurity peak area, RRT 0.86^$ (PDA spectra unrelated to the active ingredient) [6]: <0.05 % of Total
- Impurity peak area, RRT 1.04* [6]: 0.09 % of Total
- Impurity peak area, RRT 1.24* [6]: <0.05 % of Total
- Impurity peak area, RRT 0.92 [7]: 0.10 % of Total and 0.09 % of Total
- Impurity peak area, RRT 0.98* (first row) [7]: 0.23 % of Total and 0.21 % of Total
- Impurity peak area, RRT 0.98* (second row) [7]: 0.11 % of Total and 0.13 % of Total
- Impurity peak area, RRT 1.23* [7]: 0.16 % of Total and 0.12 % of Total
- Impurity peak area, Total [7]: 1.79 % of Total and 0.97 % of Total
- Impurity peak area, Total excluding artifact [7]: 0.94 % of Total and 0.97 % of Total
- Assay (as % of nominal) [7]: 108.8 % of nominal and 110.4 % of nominal
